The conditions of series [1]: known log D values from literature; sources a) MEDChem01, MEDChem03, b) calculated from logP and pKa, c) Winiwarter et al. 1998; cited from earlier work.
Series [2] in a line: DIFI-log D: octanol-impregnated PVDF membrane (DIFI-tubes) / buffer distribution, UV readout. Particulars: for logD at 2 h: pH 7.4.
Method: All compounds of the validation set were dissolved in dimethylsulfoxide at a concentration of 10 mM (DMSO-stock).
The experiment started with the accurate coating of 0,45 μm hydrophobic PVDF membranes (Immobilon-P PVDF (Millipore) and PVDF-Plus (Whatman, Headquater: 27 Great West Road, Brentford, Middlesex, TW8 9BW, UK), which were fixed on the bottom of the DI FI-tub es.
Each membrane is impregnated with exactly 1 μl octanol and 1μl DMSO-stock.
After a short incubation of 10 min the tubes with the coated membranes were connected to a 96-deepwell plate which had been prefilled with exactly 1600 μl of the selected buffer solution (50 mM TAPSO (FLUKA, BioChemika, ArtNo.93357), pH 7.4).
The plate was then sealed and shaken for two hours. During this time the substance was distributed between the membrane, the octanol and the buffer solution accordingly.
After the distribution equilibrium was reached (after 2 h) the tubes were carefully disassembled from the top of the deepwell plate in order to analyze the octanol phase which still stucks to the membrane.
Therefore, the remaining compound in the octanol phase was washed out with additional octanol as eluent. The concentration of the substance in the eluent was then determined by UV spectroscopy at absorption wavelengths between 250 and 450 nm.
In order to know the exact sample concentration before incubation with buffer a reference plate was generated under the same conditions as the described sample plate above. The reference plate was directly treated with the eluent and the resulted reference concentration in the octanol phase was measured by UV spectroscopy.
The lipophilicity value log D may be calculated from the analyzed sample concentration after incubation with buffer (Co) and the reference concentration before distribution (Cref).
Due to the fact, that all UV measurements were carried out under the same conditions, the concentration term were replaced by UV-absorption values (Abs) at the same wavelength.
In this equation, Vw is the volume of the aqueous phase was divided by the volume of the octanol phase Vo.
For each compounds three determinations were performed according to the described method above. The preparation of the reference and sample plate was performed manually.

One may read the logD as the decadic logarithm of the distribution of all forms, ionised or not, between an organic phase and buffer at a given pH. A high value points to a more lipophilic compound. Take `COc1ccc(CCN2CCC(Nc3nc4ccccc4n3Cc3ccc(F)cc3)CC2)cc1` [Astemizole]: the “Lit. log D” value in series [1] is listed as 4.10. In addition, in series [2], the logD at 2 h worked out at 4.12.
On to `COc1ccccc1OCCNCC(O)COc1cccc2[nH]c3ccccc3c12` (centres unmarked) [Carvedilol], for which the “Lit. log D” value in series [1] was 3.37. The logD at 2 h in series [2] was found to be 3.38.
With `CN(C)CC/C=C1/c2ccccc2Sc2ccc(Cl)cc21` [Chlorprothixene], the “Lit. log D” value in series [1] is recorded as 4.19. The same compound yielded a logD at 2 h in series [2] of 4.24.
Regarding `Clc1ccccc1C(c1ccccc1)(c1ccccc1)n1ccnc1` [Clotrimazole], the “Lit. log D” value in series [1] is reported as 4.99. Further, the logD at 2 h in series [2] was determined as 4.91.
Turning to `C[C@@H]1C[C@H]2[C@@H]3CCC4=CC(=O)C=C[C@]4(C)[C@@]3(F)[C@@H](O)C[C@]2(C)[C@@]1(O)C(=O)CO` [Dexamethasone], the “DIFI-log D” value in series [2] (1 μl octanol on 0,45 μm PVDF membrane / 1600 μl 50 mM TAPSO pH 7.4, shaken 2 h, UV 250-450 nm, three determinations) was 1.83.
With `COc1ccc([C@@H]2Sc3ccccc3N(CCN(C)C)C(=O)[C@@H]2OC(C)=O)cc1` [Diltiazem], the “Lit. log D” value in series [1] is on record as 2.32. In series [2], this compound had a logD at 2 h of 2.33.
In series [2], `CCOC(=O)C1=C(C)NC(C)=C(C(=O)OC)C1c1cccc(Cl)c1Cl` (centres unmarked) [Felodipine] yielded a logD at 2 h of 4.84.
Take `Clc1ccc(C(c2ccccc2Cl)C(Cl)Cl)cc1` (centres unmarked) [Mitotane]: the “Lit. log D” value in series [1] is listed as 4.87. In addition, the logD at 2 h in series [2] amounted to 4.78.
Regarding `COCCOC(=O)C1=C(C)NC(C)=C(C(=O)OC(C)C)C1c1cccc([N+](=O)[O-])c1` (centres unmarked) [Nimodipine], in series [1], the “Lit. log D” value was 3.73. In addition, the logD at 2 h in series [2] was 3.61.
In series [2], `C[C@]12CC[C@H]3[C@@H](CCC4=CC(=O)CC[C@@]43C)[C@@H]1CC[C@@H]2O` [Testosterone] showed a logD at 2 h of 3.33.
